# Assay results: patent US20060078919A1, “Diagnostic test kit and methods of diagnosis and treatment of helicobacter SPP. associated infections” (Harry C. Gurney Janice Gurney, priority 2004, published 2006)
# Test system: Helicobacter infection
# Assay: Vac A treatment of patients with pemphygus, allergic dermatitis and atopy
# Assay type: in vivo
# Conditions: more chronic and persistent cases, 25 to 75 mg bid
# Description: Vacuolating Toxin A (recombinant Vac A; Austral Biologicals, catalog number HPA-5010-4) at 0.01 mg/ml in bacteriostatic water and 0.2 ml was injected subcutaneously 2-6 times per day at intervals of at least one hour to patients with various conditions associated with evidence of Helicobacter infection.
compound,measurement,value
CN(C)CCOC(c1ccccc1)c1ccccc1 [diphenhydramine],use as supplement to Vac A therapy,used successfully
